Laboratory results: US10005735B2, “Inhibitors of RPN11” (California Institute of Technology, priority 2015, dated 2018)

Tests used:
Rpn11 [1] = biological target: T1, Rpn11 (Homo sapiens (Human), UniProt O00487); test: Rpn11 activity assay (fluorescence polarization, Ub4-pepOG cleavage by 26S proteasome); assay type: biochemical; conditions: does not inhibit Csn5 or AMSH with the same potency as Rpn11
Ub^G76V-GFP = test: Reporter degradation assay in Hela cells expressing Ub^G76V-GFP; assay type: cell-based; conditions: after MG132 removal, cycloheximide chase
Method: Characterization of the Compound Activity in Cells. […] After 4 hours, MG132 was removed and a cycloheximide (CHX) chase was initiated +/− different concentrations of test compound and the rate of reporter degradation was evaluated by monitoring GFP fluorescence by high throughput microscopy. The rate of fluorescence decrease was normalized to DMSO control and analyzed using does-response equation.

Rpn11 [2] = biological target: T1, Rpn11; test: Rpn11 activity assay (fluorescence polarization, Ub4-pepOG cleavage by 26S proteasome); assay type: biochemical; conditions: Table 2; 1 mM DTT in assay reduces disulfides to monomeric active species
Source text: Candidate compounds according to embodiments of the present invention were synthesized as described herein. […] In brief, this Rpn11 bioassay employs a fluorescent polarization readout based on the ability of the 26S proteasome to cleave the protein substrate including four tandem ubiquitin proteins fused to a peptide having a unique cysteine labeled with a fluorophore. Cleavage of this substrate by Rpn11 at the junction between the fourth ubiquitin and the peptide, releases the low molecular weight fluorescent peptide. Accordingly, inhibition of fluorescence correlates with inhibition of Rpn11. Inhibition is reported as the half maximal inhibitory concentration (IC50) for the candidate compound.
Rpn11 Activity Assay. […] In brief, in order to measure the Rpn11 activity, a synthetic peptide substrate, termed Ub4-pepOG, was engineered. […] Peptide substrate Ub4-pepOG consists of only 30 amino acids and therefore the decrease of polarization is mainly from deubiquitination but not the proteolysis of the peptide. Fluorescence polarization assay was performed in a low-volume 384 well solid black plate where the components are added in the follow sequence: 1) 5 μl compound in 3% DMSO or 3% DMSO control 2) 5 μl 26S proteasome (Enzo Life Sciences Inc, NY). […] Fluorescence polarization is measured using a PHERAstar (BMG labtech, Ortenberg, Germany) plate reader with excitation of 480 nm and emission of 520 nm filter set. […] Rpn11 activity was normalized to DMSO control and fitted using does-response curve.

AMSH = AMSH (Homo sapiens (Human), UniProt O95630); test: AMSH activity assay (DiUb^K63TAMRA cleavage, fluorescence); assay type: biochemical; conditions: Table 2
Source text: AMSH Activity Assay. AMSH is known to selectively cleave ubiquitin chains in which the ubiquitins are joined via K63 of the proximal ubiquitin linked by an isopeptide bond to the carboxy terminus of the distal ubiquitin. […] In brief, DiUb^K63TAMRA was labeled with quench pairs TAMRA/QXL.

Csn5 = Csn5 (Homo sapiens (Human), UniProt Q92905); test: Csn5 activity assay (fluorescence polarization, SCF^skp2-Nedd8OG, COP9 Signalosome Complex); assay type: biochemical; conditions: Table 2
Method: Csn5 Activity Assay. […] In brief, a fluorescent substrate termed SCF^skp2-Nedd8OG was produced to measure CSN5 activity in vitro. This assay measures the decrease in fluorescence polarization due to the decrease in apparent molecular weight of Oregon Green (OG) fluorophore (from the ˜175 kDa substrate to ˜9 kDa Nedd8OG) as a result of Csn5-mediated cleavage of the isopeptide bond that links Nedd8OG to SCF^Skp2. The assay was performed in a low-volume 384 well solid black plate comprising equal volumes of compound, substrate (SCF^skp2-Need8OG) and enzyme (purified COP9 Signalosome Complex, CSN). Fluorescence polarization was recorded using the same setting as for the Rpn11 activity assay.

AMSH, sequence (O95630 whole entry): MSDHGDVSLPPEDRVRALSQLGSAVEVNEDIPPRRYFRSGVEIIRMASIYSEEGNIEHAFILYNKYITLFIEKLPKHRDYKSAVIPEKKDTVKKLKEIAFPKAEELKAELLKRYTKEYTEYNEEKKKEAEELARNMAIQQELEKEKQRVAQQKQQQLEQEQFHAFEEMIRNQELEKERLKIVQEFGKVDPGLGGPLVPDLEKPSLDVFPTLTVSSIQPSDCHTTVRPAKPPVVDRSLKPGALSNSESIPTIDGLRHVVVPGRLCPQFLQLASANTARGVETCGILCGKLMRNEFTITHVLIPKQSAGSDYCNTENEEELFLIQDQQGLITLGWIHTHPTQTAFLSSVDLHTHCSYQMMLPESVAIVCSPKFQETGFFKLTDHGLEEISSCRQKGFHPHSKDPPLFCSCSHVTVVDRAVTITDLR
T1 sequence (O00487 whole entry, looked up): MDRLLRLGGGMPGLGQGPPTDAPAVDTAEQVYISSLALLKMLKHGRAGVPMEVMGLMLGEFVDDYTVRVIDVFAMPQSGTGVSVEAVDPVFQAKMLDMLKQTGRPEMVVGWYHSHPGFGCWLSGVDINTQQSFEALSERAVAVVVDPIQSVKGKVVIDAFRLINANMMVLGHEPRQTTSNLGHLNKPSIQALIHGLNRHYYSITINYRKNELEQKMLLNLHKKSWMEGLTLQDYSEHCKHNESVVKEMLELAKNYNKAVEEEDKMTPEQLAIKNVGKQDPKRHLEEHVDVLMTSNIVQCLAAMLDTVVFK

| Structure (SMILES) | specificity for Rpn11 versus Csn5 and/or AMSH (in words) (Rpn11 [1]) | IC50 (Ub^G76V-GFP) | IC50 (Rpn11 [2]) | IC50 (AMSH) | IC50 (Csn5) | IC50 (Ub^G76V-GFP; Homo sapiens) |
| --- | --- | --- | --- | --- | --- | --- |
| O=C(NCc1ccncc1)c1cnc2c(SSc3cccc4cc(C(=O)NCc5ccncc5)cnc34)cccc2c1 [Compound 15, 8,8′-Disulfanediylbis(N-(pyridin-4-ylmethyl)quinoline-3-carboxamide)] | specific inhibitors of Rpn11 | > 10000 nM | 200 nM | 500 nM | 7000 nM | – |
| O=C(NCc1ccc(C(F)(F)F)cc1)c1cnc2c(SSc3cccc4cc(C(=O)NCc5ccc(C(F)(F)F)cc5)cnc34)cccc2c1 [Compound 18, 8,8′-Disulfanediylbis(N-(4-(trifluoromethyl)benzyl)quinoline-3-carboxamide)] | specific inhibitors of Rpn11 | > 10000 nM | 700 nM | 3400 nM | > 100000 nM | – |
| O=C(NCCc1cccs1)c1ccnc2c(SSc3cccc4c(C(=O)NCCc5cccs5)ccnc34)cccc12 [Compound 24, 8,8′-disulfanediylbis(N-(2-(thiophen-2-yl)ethyl)quinoline-4-carboxamide)] | specific inhibitors of Rpn11 | 1100 nM | 700 nM | 1000 nM | 7300 nM | – |
| O=C(NCCc1ccco1)c1ccnc2c(SSc3cccc4c(C(=O)NCCc5ccco5)ccnc34)cccc12 [Compound 26, 8,8′-disulfanediylbis(N-(2-(furan-2-yl)ethyl)quinoline-4-carboxamide)] | specific inhibitors of Rpn11 | – | 1000 nM | 2900 nM | 8000 nM | 1600 nM |
